Measurements as given in patent US20230012570A1, “BICYCLIC COMPOUND USED AS SELECTIVE ANDROGEN RECEPTOR MODULATOR” (MEDSHINE DISCOVERY INC., priority 2019, published 2023).

Tests used:
androgen receptor (AR) = biological target: T1, androgen receptor (AR) (Homo sapiens, UniProt P10275); test: Agonistic effect of test compounds on androgen receptor (AR), LiveBLAzer FRET reporter cell assay; type: cell-based
T1 sequence (P10275 1-920): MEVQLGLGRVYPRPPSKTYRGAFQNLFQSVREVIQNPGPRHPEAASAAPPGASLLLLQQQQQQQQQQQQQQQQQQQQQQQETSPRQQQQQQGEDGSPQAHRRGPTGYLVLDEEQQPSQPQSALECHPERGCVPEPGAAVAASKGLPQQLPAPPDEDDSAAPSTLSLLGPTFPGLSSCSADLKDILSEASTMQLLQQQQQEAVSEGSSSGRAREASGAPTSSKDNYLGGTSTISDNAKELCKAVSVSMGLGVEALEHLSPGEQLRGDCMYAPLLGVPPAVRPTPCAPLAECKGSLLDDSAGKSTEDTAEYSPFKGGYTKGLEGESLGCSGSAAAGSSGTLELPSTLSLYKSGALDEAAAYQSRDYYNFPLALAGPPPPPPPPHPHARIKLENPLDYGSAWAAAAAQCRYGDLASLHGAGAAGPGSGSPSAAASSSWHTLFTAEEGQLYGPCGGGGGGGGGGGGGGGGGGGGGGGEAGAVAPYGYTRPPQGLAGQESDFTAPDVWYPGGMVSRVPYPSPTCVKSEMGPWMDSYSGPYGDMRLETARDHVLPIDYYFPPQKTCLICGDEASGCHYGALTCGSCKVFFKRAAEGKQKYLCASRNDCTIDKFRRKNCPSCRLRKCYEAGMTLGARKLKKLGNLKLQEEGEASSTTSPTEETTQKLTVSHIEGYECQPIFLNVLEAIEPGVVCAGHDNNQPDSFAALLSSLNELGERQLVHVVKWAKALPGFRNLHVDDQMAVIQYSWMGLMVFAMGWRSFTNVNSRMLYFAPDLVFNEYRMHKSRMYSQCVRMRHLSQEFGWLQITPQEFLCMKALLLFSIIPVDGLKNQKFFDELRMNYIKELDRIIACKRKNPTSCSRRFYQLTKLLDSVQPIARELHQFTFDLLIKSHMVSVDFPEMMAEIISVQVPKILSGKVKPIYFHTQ
Description: Experimental Embodiment 1: Agonistic Effect of Test Compounds on Androgen Receptor (AR)
1. Preparation of Compounds, Placing in Plates:
1.1 Preparation of compounds: the test compounds were diluted to the working concentration, and each compound was diluted by 4 times with Echo for 10 concentration gradients, and the compounds were added to a 384-well cell plate according to the microplate layout diagram, with 200 nL per well;
1.2 AR cell assay medium: 87% Opti-MEM (reduced serum medium), 10% Dialyzed FBS (dialyzed fetal bovine serum), 1% NEAA (non-essential amino acids), 1% sodium pyruvate and 1% penicillin-streptomycin;
1.3 culture medium, trypsin and Dulbecco's phosphate buffer were preheated in a 37° C. water bath;
1.4 the original medium in the cell culture flask was removed, and the cells were washed once with 6 mL of Dulbecco's phosphate buffer;
1.5 3.5 mL of trypsin was added to the cell culture flask, and the flask was gently shaken to make the trypsin fully contact with the cells, the trypsin was removed; after aspirating the trypsin, the culture flask was placed in a 37° C. incubator containing 5% CO2 for about 1 minute;
1.6 the cells were resuspended with 10 mL of cell detection medium, and about 0.8 mL of cell suspension was taken out for counting (ViCell XR)
1.7 the cell suspension was diluted with culture medium to 2.5×10^5 cells per mL;
1.8 40 !IL of cell suspension was added to each well of the cell plate, and 40 μL of cell culture medium was added to the other wells, and the cells were incubated in a 37° C. incubator containing 5% CO2 for 16 hours.
2. Reading the Board and Analyzing Data:
2.1 Preparation of solution A: 182 μL of DMSO was added to 200 μg of LiveBLAzer™-FRET B/G/g substrate (CCF4-AM). The solution A was packaged and stored in a refrigerator at −20° C.;
2.2 preparation of 6×substrate buffer: 15 μL of solution A was added to 150 μL of solution B, and the mixture was vortexed evenly, then 2335 μL of solution C was added to the above solution and vortexed evenly;
2.3 the cell culture plate was taken out, and 8μL of 6×substrate buffer was added to each well, shaken for 1 minute, and centrifuged at 1000 rpm for 10 seconds; after sealing the membrane, the cells were incubated at 23° C. for 2 hours, and the plate was read with Envision, and the curve EC50 value was fitted by Prism software.

[1] = system: muscle growth model of female rats; test: In vivo pharmacodynamic study for muscle growth in female rats; settings: female SD rats, 10 mg/kg oral, QD × 37 days
Source text: Experimental Embodiment 3: In Vivo Pharmacodynamic Study of the Compounds of the Present Disclosure for Muscle Growth in Female Rats
From 16 female SD rats, 12 were selected and randomly divided into 2 groups of 6 animals each according to their body weight, with 2 spare animals in each group; the vehicle was (5% Tween 80+90% polyethylene glycol 400+5% polyvinylpyrrolidone K30): 1% carboxymethyl cellulose=1:9 (v/v).
The rats were acclimatized in the ecological feeding box for 1 week at approximately 2 months of age, and after the acclimatization period, the rats were divided equally into 2 groups (n=6) according to body weight, and the vehicle and compound 3A were administered by gavage, once a day, for 5 weeks, at which time the animals were euthanized, and the tissues (muscle tissue: levator anal muscle, vaginal smooth muscle and gastrocnemius; gonad-related tissue: clitoris) were collected by necropsy and weighed.

## N#Cc1ccc(N2CC3CC3C2C(O)C(F)(F)F)cc1Cl (single isomer, unassigned) [Compound 3A]
Androgen receptor (AR)
  EC50: 0.81 nM
[1]
  abnormalities / tolerability of the animals: no significant abnormalities
  increase of animal body weight compared with the vehicle group: 20%
  increase of animal muscle weight compared with the vehicle group: 34%
  increase of clitoral weight compared with the vehicle group (gonad-related tissue): 19%
